In patent publication US11111249B2, “Heteroaryl-pyrazole derivative, and preparation method therefor and medical application thereof” (Jiangsu Hengrui Medicine Co., Ltd., priority 2017, dated 2021):

How the values were obtained:
[1] = tested on: peripheral blood mononuclear cells (PBMC); assay: Stimulation of the secretion of IFN-α from PBMC (HTRF); format: cell-based, human; conditions: lowest concentration giving cytokine level at least 3 times the minimum detection limit; 24 hours
Experimental: The ability of the compound of the present application to stimulate the secretion of IFN-α from PBMC was determined by the following experimental method:
Compounds were diluted in pure DMSO at a maximum concentration of 5 mM in 4-fold gradients for a total of 9 points. Then 4 μL of the compound were taken and added to 196 μL of RMPI 1640 medium containing 10% FBS and mixed. 50 μL per well were taken and added into a new 96-well cell culture plate.
All reagents were equilibrated to room temperature, and a 250 mL culture flask was taken and 60 mL blood and PBS+2% FBS were added therein, and the mixture was gently diluted by pipetting. […] The cells were resuspend with RMPI 1640 medium containing 10% FBS and counted, adjusted the amount of PBMC to 3.33×10^6 cells/mL, and 150 μL were taken and added to the cell culture plate to which the compound had been added, and cultured at 37° C. in a 5.0% CO2 incubator for 24 hours. […]
It was read in the HTRF mode on the PHERAStar. […]
The ability of the compound of the present application and the control compound (prepared by the method of embodiment 21 of WO2016023511) to stimulate the secretion of IFN-α from PBMC were determined by the above test, and the measured MEC values were as shown in Table 2.

CYP2D6 = target: T1, CYP2D6 (Homo sapiens, UniProt P10635); assay: Inhibition of human liver microsome CYP2D6 (dextromethorphan substrate); format: in vitro ADME; conditions: human liver microsomes, 30 minutes, read-out: IC50 for the metabolic site on CYP2D6
T1 construct: Human liver microsomes (Corning Gentest); tissue Corning Gentest; host or cells: human liver microsomes
Experimental: The enzymatic activity of the compound of the present application against human liver microsome CYP2D6 was determined by the following experimental method:
CYP probe substrate (20 μM Dextromethorphan, SIGMA Q0750) and positive control inhibitor (Quinidine, SIGMA D9684).
100 mM PBS buffer was configured, and 2.5 mg/mL microsome solution and 5 mM NADPH solution were prepared with this buffer, and the 5× concentration compound working solution was diluted with PBS (150, 50, 15, 5, 1.5, 0.15, 0.015, 0 μM). The 5× concentration of Quinidine working solution (150, 50, 15, 5, 1.5, 0.15, 0.015, 0 μM) was diluted with PBS. Dextromethorphan working solution was diluted to a concentration of 20 μM with PBS.
20 μL each of 2.5 mg/mL microsome solution, 20 μM Dextromethorphan working solution, MgCl2 solution and compound working solution (150, 50, 15, 5, 1.5, 0.15, 0.015, 0 μM, each concentration was setted differently reaction system) were taken and mixed evenly. The compound was replaced with the same concentration of Quinidine at the positive control group. At the same time, 5 mM NADPH solution was pre-incubated for 5 minutes at 37° C. After 5 minutes, 20 μL NADPH were added into the wells, and the reaction was started and incubated for 30 minutes. All samples were incubated for two samples. […]

T1 sequence (P10635 whole entry): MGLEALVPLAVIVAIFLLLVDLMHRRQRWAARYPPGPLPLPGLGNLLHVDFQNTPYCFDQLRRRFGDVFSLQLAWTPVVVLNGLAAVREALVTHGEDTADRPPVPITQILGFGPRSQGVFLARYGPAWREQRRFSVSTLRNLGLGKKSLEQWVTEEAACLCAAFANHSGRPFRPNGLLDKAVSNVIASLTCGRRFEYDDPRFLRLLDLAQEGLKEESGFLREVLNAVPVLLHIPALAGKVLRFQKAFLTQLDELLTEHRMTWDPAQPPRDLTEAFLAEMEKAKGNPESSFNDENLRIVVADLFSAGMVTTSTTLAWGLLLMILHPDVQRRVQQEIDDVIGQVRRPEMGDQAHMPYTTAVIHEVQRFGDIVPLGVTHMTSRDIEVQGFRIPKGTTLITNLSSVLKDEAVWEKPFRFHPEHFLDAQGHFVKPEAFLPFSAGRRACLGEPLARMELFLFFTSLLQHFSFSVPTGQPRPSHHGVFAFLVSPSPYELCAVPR

CCCCOc1nc(N)c2[nH]nc(Cc3ccc(CN4CCCC4)cc3)c2n1 [Embodiment 1, 5-Butoxy-3-(4-(pyrrolidin-1-ylmethyl)benzyl)-1H-pyrazolo[4,3-d]pyrimidin-7-amine] was tested, and the “MEC (Minimal Effective Concentration) to stimulate the secretion of IFN-α from PBMC” value [1] was 0.28 nM and the IC50 (CYP2D6) was greater than 30 µM.
With CCCCOc1nc(N)c2[nH]cc(Cc3ccc(CN4CCCC4)cc3)c2n1 [Embodiment 21 of WO2016023511] the “MEC (Minimal Effective Concentration) to stimulate the secretion of IFN-α from PBMC” value [1] was 5.5 nM and the IC50 (CYP2D6) was 5.3 µM.
